Consider two molecules from patent publication US12329760B2, “Methods and compositions for targeting retinoic acid for solid tumor immunotherapy” (THE TRUSTEES OF THE UNIVERSITY OF PENNSYLVANIA, priority 2019, dated 2025).

For the assay, the system named is MCAS cells. As to the kind of experiment: RALDH3 expression in treated MCAS cells by RT-QPCR. Conditions: for RALDH3 expression (relative to 18S): MCAS cells treated in vitro with cytokine, vs no Tx. In kind it is cell-based, murine. The method, then:
FIGS. 16A-16C show 1L13 and RALDH expression. FIG. 16A: MCAS cells were treated in vitro with indicated agents and RALDH3 expression (relative to 18S) measured by RT-QPCR. P<0.05 between no Tx and IL4 or IL13. N=3, repeated >5 times. FIG. 16B: IL13 and IL13Rα1 staining in murine UPS. FIG. 16C: Single cell suspension from MCAS tumors were fractionated into CD45+(Leukocytes) and CD45-fraction using miltenyi magnetic columns. RT-QPCR based measurement (relative to 18S) of IL13 and IL13Rα1 transcripts were performed on fractionated cells. P<0.01 for IL13. N=3, experiment repeated twice.
FIG. 20A: MCAS cells were treated with indicated compounds and RALDH3 expression (relative to 18S) measured by RT-QPCR. P<0.01 for DMSO vs. IL13. P<0.05 for IL13 vs. IL13+BMS493. FIG. 20B: Schematic of RALDH3 regulation by RA.
Aldefluor positive and negative cells were purified from murine fibrosarcomas and were transplanted into syngeneic B6 mice. Tumors derived from both types of cells generated both aldefluor positive and negative cells. This indicated the existence of an environmental signal in the TME that induces RA production in tumor cells. Th2 cytokines such as IL4 and IL13 can promote the differentiation of monocytes into either immunostimulatory DCs or immunosuppressive TAMS. Therefore, it was reasoned that tumors might induce RA production in the presence of IL4 or IL13 to block DC and promote TAM differentiation. To test this, MCAS cell lines were treated with cytokines promoting macrophage and DC differentiation and measured the expression of RALDH enzymes. […] IL13 and its receptor IL13Rα1 were also detected in murine sarcomas by IHC (FIG. 16B).

Turning to IL13: Th2 cytokine, the “RALDH3 expression (relative to 18S)” value is listed as “induced the expression of RALDH3”. In addition, the “potency of RALDH3 induction, IL13 compared with IL4” value (MCAS cells in vitro) was “more potent”.

B1: IL4: Th2 cytokine (protein, UniProt P05112 25-153, looked up)
Interleukin-4: HKCDITLQEIIKTLNSLTEQKTLCTELTVTDIFAASKNTTEKETFCRAATVLRQFYSHHEKDTRCLGATAQQFHRHKQLIRFLKRLDRNLWGLAGLNSCPVKEANQSTLENFLERLKTIMREKYSKCSS
Consider B1, for which the “RALDH3 expression (relative to 18S)” value is “induced the expression of RALDH3”.
